Counter-ions that a name gives are not always drawn. Like-named read-outs stand apart in the source and are kept apart here.

In data set [1] the test system is spontaneously hypertensive rats (SHR). Briefly: Test Example 5: efficacy in spontaneously hypertensive rats. In kind it is in vivo. The note with it: licorice extract (Preparation Example 3) 300 mg/kg/day or enalapril maleate 20 mg/kg/day orally. The procedure: As a positive control, enalapril maleate, an antihypertensive agent, was used.
During the period, the mice had free access to food (CRF-1, Oriental Yeast Co.) and water.
On the day immediately preceding the start of treatment and on day 7, day 14, and day 21 of treatment, the blood pressure was measured at the tail artery using a non-invasive automatic hemomanometer (BP-97A, Softron Co., Ltd.). The measurement of blood pressure was performed before each administration of the sample.

Data set [2] has as its system KK-Ay mice. As to the kind of experiment: Test Example 3: preventing effect on diabetes mellitus in type II diabetic model mice-2. The class given is in vivo. The note with it: pioglitazone 0.04% or licorice extract (Preparation Example 2) 0.2% in food. From the text:
Regarding troglitazone, Noscal Tab.
As a positive control, the antidiabetic agent pioglitazone was used. As pioglitazone, Actos Tab. […] For the determination of blood glucose, the simple blood glucose test Glutest Ace (Sanwa Kagaku Kenkyusho Co., Ltd.) was used.

The test system of data set [3] is KK-Ay mice. Briefly: Test Example 4: ameliorating effect on diabetes mellitus in type II diabetic model mice. The class given is in vivo. The following applies: pioglitazone 0.02% or licorice extract (Preparation Example 2) 0.2% in food. From the text:
As a positive control, the antidiabetic agent pioglitazone was used.
The mice had free access to food for 7 days. […] For the determination of blood glucose, the simple blood glucose test Glutest Ace (Sanwa Kagaku Kenkyusho Co., Ltd.) was used.

The test system of data set [4] is KK-Ay mice. Briefly: Test Example 7: efficacy of turmeric extract in type II diabetic model mice. The following applies: pioglitazone 0.04% or turmeric extract (Preparation Example 5) 0.5% in food. The class given is in vivo. The source says: (§1) As a positive control, the antidiabetic agent pioglitazone was used. […] As pioglitazone, Actos Tab.
The test system of data set [5] is KK-Ay mice. As to the kind of experiment: Test Example 9: efficacy of clove extract in type II diabetic model mice. The class given is in vivo. The note with it: pioglitazone 0.02% or clove extract (Preparation Example 7) 0.5% in food.
Source text: as §1

The test system of data set [6] is KK-Ay mice. The following applies: for Blood glucose: troglitazone 0.2% or licorice extract (Preparation Example 1) 0.15% in food. The procedure: As a positive control, the antidiabetic agent troglitazone was used.
Regarding troglitazone, Noscal Tab. 200 (200 mg of troglitazone in each tablet; Sankyo Co., Ltd.) was pulverized in an agate mortar and added to the normal food at a final concentration of 0.2%.
During the feeding period, small samples of blood were taken weekly from the mouse tail vein and the blood glucose was determined with the simple blood glucose test Novo Assist Plus (Novo Nordisk Pharma Ltd.).
At the end of the feeding period, the mice were fasted overnight and the abdomen was opened under ether anesthesia.
The blood was withdrawn from the abdominal aorta and the liver was excised and weighed. In addition, Sogo Ikagaku Kenkyusho Co., Ltd. was entrusted with analyses for serum total cholesterol (T-CHO), triglyceride (TG), free fatty acid (NEFA), GOT, GPT, LAP, cholinesterase (ChoE), total protein (TP-S), albumin (ALB-S), and A/G ratio.

The mark [7] stands for this setting: end of 4-week feeding, overnight fast, troglitazone 0.2% or licorice extract 0.15% in food.

`CCOC(=O)[C@H](CCc1ccccc1)N[C@@H](C)C(=O)N1CCC[C@H]1C(=O)O` [Enalapril maleate, enalapril maleate]: the Blood pressure amounted to 111 ± 2.5 mmHg in data set [1] (Before start, tail artery); 118 ± 3.2 mmHg in data set [1] (Day 7, tail artery); 119 ± 3.4 mmHg in data set [1] (Day 14, tail artery); 134 ± 3.1 mmHg in data set [1] (Day 21, tail artery).
For the compound `CCc1ccc(CCOc2ccc(CC3SC(=O)NC3=O)cc2)nc1` (stereo not shown) [Pioglitazone, pioglitazone], the Blood glucose in the data set on KK-Ay mice [2] (1 week) was 163 ± 23 mg/dL; with KK-Ay mice [2] (2 week), 182 ± 9 mg/dL; with KK-Ay mice [2] (3 week), 167 ± 18 mg/dL; in the data set on KK-Ay mice [2] (4 week), 153 ± 21 mg/dL; with KK-Ay mice [2] (Start) it was 151 ± 9 mg/dL; with KK-Ay mice [3] (Day 4), 168 ± 49 mg/dL. The Blood glucose came out at 143 ± 16 mg/dL in the data set on KK-Ay mice [3] (Day 7); 378 ± 36 mg/dL in the data set on KK-Ay mice [3] (Start, hyperglycemic 15-week-old mice); 163 ± 23 mg/dL in the data set with KK-Ay mice [4] (1 week); 182 ± 9 mg/dL with KK-Ay mice [4] (2 week); 166 ± 18 mg/dL in the data set with KK-Ay mice [4] (3 week); 153 ± 21 mg/dL in the data set with KK-Ay mice [4] (4 week). Further, the Blood glucose came to 151 ± 9 mg/dL in the data set on KK-Ay mice [4] (Start); 208 ± 21 mg/dL with KK-Ay mice [5] (1 week); 192 ± 17 mg/dL with KK-Ay mice [5] (2 week); 164 ± 16 mg/dL with KK-Ay mice [5] (3 week); 156 ± 16 mg/dL with KK-Ay mice [5] (Start).
In the data set on KK-Ay mice [6] (1 week), `Cc1c(C)c2c(c(C)c1O)CCC(C)(COc1ccc(CC3SC(=O)NC3=O)cc1)O2` (stereo not shown) [Troglitazone, troglitazone] registered a Blood glucose of 217 ± 74 mg/dL. In addition, the Blood glucose with KK-Ay mice [6] (2 week) was found to be 173 ± 40 mg/dL. This compound yielded a Blood glucose with KK-Ay mice [6] (3 week) of 304 ± 77 mg/dL. The compound further showed a Blood glucose in the data set on KK-Ay mice [6] (4 week) of 246 ± 51 mg/dL. The Blood glucose with KK-Ay mice [6] (Start) was found to be 145 ± 11 mg/dL. Also, in the data set on KK-Ay mice [6] (setting [7]), the “NEFA (serum free fatty acid)” value worked out at 1750 ± 302 μEq/L, the “T-CHO (serum total cholesterol)” value was determined as 163 ± 7 mg/dL and the “TG (serum triglyceride)” value is 39 ± 14 mg/dL. Further, in the data set on KK-Ay mice [6] (mouse, in vivo), the A/G ratio was 0.98 ± 0.05, the “ALB-S (albumin)” value turned out to be 2.50 ± 0.12 g/dL, the GOT came to 121 ± 26 IU/L and the GPT is on record as 70.5 ± 26.2 IU/L. In the data set on KK-Ay mice [6] (mouse, in vivo), the LAP is 60.8 ± 6.1 IU/L, the “TP-S (total protein)” value amounted to 5.13 ± 0.17 g/dL and the “elevation in GOT compared with the non-treatment group” value was determined as 13%. In addition, the “ChoE (cholinesterase)” value in the data set on KK-Ay mice [6] (serum, end of 4-week feeding, troglitazone 0.2% or licorice extract 0.15% in food) stood at 153 ± 9 IU/L.
